Laboratory results published in US11883411B2 (priority 2022, dated 2024).
Entries after “also recorded” stand apart in the source; their conditions may differ.

Assays:
[1] = tested on: ASFV fluorescent virus; type: cell-based, African swine fever virus (ASFV)
[2] = tested on: ASFV fluorescent virus; experiment: microbe, parasite or virus in culture; type: cell-based, African swine fever virus (ASFV)
[3] = tested on: ASFV fluorescent virus; type: cell-based, African swine fever virus (ASFV); remark: listed apart in the source
[4] = tested on: D1133L RNA of ASFV; type: cell-based
[5] = tested on: D1133L protein of ASFV; type: cell-based
[6] = tested on: p30 protein of ASFV; type: cell-based, African swine fever virus (ASFV)
[7] = tested on: p72 protein of ASFV; type: cell-based, African swine fever virus (ASFV)
[8] = tested on: PAM cells; details: pig

For C[C@@H](O[C@H]1OCCN(Cc2n[nH]c(=O)[nH]2)[C@H]1c1ccc(F)cc1)c1cc(C(F)(F)F)cc(C(F)(F)F)c1 [aprepitant, 5-[2(R)-[1(R)-[3,5-bis(trifluoromethyl)phenyl]ethoxy]-3(S)-(4-fluorophenyl)morpholino-4-ylmethyl]-3,4-dihydro-2H-1,2,4-triazol-3-one], the “fluorescence of ASFV fluorescent virus in infected cells” value [1] was “gradually becomes darker; also recorded: completely disappears”, the “ASFV genome copy number” value [2] was “reduced” and the inhibition at 22 µM ([2]; African swine fever virus, 48 h, read-out: inhibition of ASFV genome copy number) was greater than 50%. For the same compound, the “TCID50 of ASFV fluorescent virus” value [3] was “reduce the TCID50; also recorded: minimum”, the “inhibition rate of D1133L RNA expression level” value [4] was “higher than 50%” and the “expression level of D1133L protein” value [5] was “significantly decreased”. The “expression level of p30 protein” value [6] was “significantly decreased”, the “expression level of p72 protein” value [7] was “significantly decreased” and the cell viability [8] was “more than 50%”.
